System: plasma active GLP-1 levels
Experiment: In vivo effects of ASBT inhibitor SC-435 on plasma active GLP-1 levels in rats (ELISA)
Set-up: species or system Sprague Dawley rats
Description: Male Sprague Dawley rats (HSD) 12 weeks old were fasted overnight for 16 hours.
SC-435 (racemate form synthesized at Nanosyn Inc. Menlo Park, Calif.) in 1 ml of saline administrated orally via gavage tube (n=5 per group).
Blood samples (200 μl) taken from the caudal vein with capillary tube at […] after compound administration for testing of plasma active GLP-1 levels (ELISA, Millipore Inc.)
Blood was collected in ice-cooled EDTA vial. Immediately (<30 seconds) after collection DPP-IV inhibitor added (10mkl per 1 ml blood). Samples were centrifuged immediately at 1000×g for 10 minutes in refrigerated centrifuge. Plasma was stored at −70° C. until evaluation.

1-[4-[4-[(4R,5R)-3,3-dibutyl-7-(dimethylamino)-2,3,4,5-tetrahydro-4-hydroxy-1,1-dioxido-benzothiepin-5-yl]phenoxy]butyl]-4-aza-1-azoniabicyclo[2.2.2]octane methanesulfonate salt [SC-435]
time of peak GLP-1 after administration (after oral SC-435 administration): 3 to 5 h | increase of 5-hour integrated GLP-1 concentrations vs. vehicle (oral gavage, doses 3, 30 or 100 mg/kg, overnight-fasted male rats, dose-dependent): 2.5 fold | Peak GLP-1 (plasma active GLP-1 after oral SC-435): 30 to 36 pM

— patent publication US20130034536A1, “Bile Acid Recycling Inhibitors for Treatment of Pancreatitis” (Lumena Pharmaceuticals, Inc., priority 2011, published 2013)
